Drawing on ChEMBL document CHEMBL3108727, “Lupane triterpenoids from the stems of Euonymus carnosus” (J Nat Prod, 2014), this text covers IC50 and viability for 24 molecules.

Series [1] is described as follows: Antiinflammatory activity in mouse BV2 cells assessed as inhibition of LPS-induced nitric oxide production after 24 hrs by Griess method. In kind it is functional, cell-based. To be noted: BV-2, 24 h. For orientation: The Griess reaction detects nitrite, a stable product of nitric oxide.
The next series relates to A2780. Nature of the series: Cytotoxicity against human A2780 cells after 96 hrs by MTT assay. Type of series: functional, cell-based. To be noted: A2780, 96 h.
In the next series the test system is A549. Nature of the series: Cytotoxicity against human A549 cells after 96 hrs by MTT assay. Type of series: functional, cell-based. To be noted: A549, 96 h. On the technique in general: Tetrazolium assays rely on reduction of a dye to a coloured formazan, in cell work by metabolically active cells.
The nature of series [2]: Cytotoxicity against human BGC823 cells after 96 hrs by MTT assay. Type of series: functional, cell-based. The following applies: BGC-823, 96 h.
Series [3] in a line: Cytotoxicity against human Bel7402 cells after 96 hrs by MTT assay. Type of series: functional, cell-based. The following applies: Bel-7402, 96 h.
Series [4] can be described thus: Cytotoxicity against human HCT8 cells after 96 hrs by MTT assay. In kind it is functional, cell-based. To be noted: HCT-8, 96 h.
Series [5] is described as follows: Cytotoxicity against mouse BV2 cells assessed as cell viability by MTT assay relative to LPS-treated control. Type of series: cell-based, BV-2. Set-up: concentration or dose not given beside the values. The following applies: read-out: Activity.

The structures appear in SMILES notation. Bounds are passed on as bounds.

As a reminder, the IC50 is the midpoint of a concentration-inhibition curve. As for `C=C(CO)[C@@H]1CC[C@]2(C)CC[C@]3(C)[C@H](CC[C@@H]4[C@@]5(C)CC[C@@H](O)C(C)(C)[C@@H]5CC[C@]43C)[C@@H]12`, the IC50 (in series [1]; in the series on A2780; in the series on A549; in series [2]; in series [3]; in series [4]) was above 10 µM throughout.

Consider `CC(=O)[C@@H]1CC[C@]2(C)CC[C@]3(C)[C@H](CC[C@@H]4[C@@]5(C)CC[C@@H](O)C(C)(C)[C@@H]5CC[C@]43C)[C@@H]12`, for which the IC50 (in series [1]; in the series on A2780; in the series on A549; in series [2]; in series [3]; in series [4]) was above 10 µM in each case.

As for `CC(=O)[C@@H]1CC[C@]2(C)CC[C@]3(C)[C@H](CC[C@@H]4[C@@]5(C)CC[C@H](O)C(C)(C)[C@@H]5CC[C@]43C)[C@@H]12`, the viability in series [5] is 93.5%. Moreover, the IC50 in series [1] is 6.09 µM; in the series with A2780, above 10 µM; in the series on A549 it was above 10 µM; in series [2] it was above 10 µM; in series [3], above 10 µM; in series [4], above 10 µM.

Turning to `C[C@H](C(=O)O)[C@@H]1CC[C@]2(C)CC[C@]3(C)[C@H](CC[C@@H]4[C@@]5(C)CCC(=O)C(C)(C)[C@@H]5CC[C@]43C)[C@@H]12`, the IC50 (in series [1]; with A2780; with A549; in series [2]; in series [3]; in series [4]) was above 10 µM each time.

In the case of `C[C@@H](C(=O)O)[C@@H]1CC[C@]2(C)CC[C@]3(C)[C@H](CC[C@@H]4[C@@]5(C)CC[C@@H](O)C(C)(C)[C@@H]5CC[C@]43C)[C@@H]12`, the viability in series [5] is 96.8%. The IC50 is 7.8 µM in series [1]; above 10 µM with A2780; above 10 µM in the series on A549; above 10 µM in series [2]; above 10 µM in series [3]; above 10 µM in series [4].

`C[C@@H](O)[C@@H]1CC[C@]2(C)CC[C@]3(C)[C@H](CC[C@@H]4[C@@]5(C)CC[C@@H](O)C(C)(C)[C@@H]5CC[C@]43C)[C@@H]12`: the viability in series [5] came out at 94.2%. Also, the IC50 in series [1] was 3.48 µM; with A2780 it was above 10 µM; in the series on A549, above 10 µM; in series [2], above 10 µM; in series [3], above 10 µM; in series [4] it was above 10 µM.

Take `C[C@@H](CO)[C@@H]1CC[C@]2(C)CC[C@]3(C)[C@H](CC[C@@H]4[C@@]5(C)CCC(=O)C(C)(C)[C@@H]5C[C@H](O)[C@]43C)[C@@H]12`: the IC50 (in series [1]; in the series with A2780; in the series with A549; in series [2]; in series [3]; in series [4]) was above 10 µM in each case.

Take `C[C@@H](CO)[C@@H]1CC[C@]2(C)C[C@H](O)[C@]3(C)[C@H](CC[C@@H]4[C@@]5(C)CCC(=O)C(C)(C)[C@@H]5CC[C@]43C)[C@@H]12`: the IC50 (in series [1]; in the series with A2780; in the series with A549; in series [2]; in series [3]; in series [4]) was above 10 µM in each case.

For `C=C(CO)[C@@H]1CC[C@]2(C)CC[C@]3(C)[C@H](CC[C@@H]4[C@@]5(C)CCC(=O)C(C)(C)[C@@H]5C[C@H](O)[C@]43C)[C@@H]12`, the IC50 (in series [1]; in the series with A2780; in the series with A549; in series [2]; in series [3]; in series [4]) was above 10 µM in each case.

For `C=C(CO)[C@@H]1CC[C@]2(C)C[C@H](O)[C@]3(C)[C@H](CC[C@@H]4[C@@]5(C)CCC(=O)C(C)(C)[C@@H]5CC[C@]43C)[C@@H]12`, the IC50 (in series [1]; with A2780; in the series with A549; in series [2]; in series [3]; in series [4]) was above 10 µM throughout.

On to `C=C(C=O)[C@@H]1CC[C@]2(C)CC[C@]3(C)[C@H](CC[C@@H]4[C@@]5(C)CC[C@@H](O)C(C)(C)[C@@H]5CC[C@]43C)[C@@H]12`, for which the IC50 (in series [1]; in the series on A2780; in the series with A549; in series [2]; in series [3]; in series [4]) was above 10 µM each time.

As to `C=C(CO)[C@@H]1CC[C@]2(CO)CC[C@]3(C)[C@H](CC[C@@H]4[C@@]5(C)CC[C@@H](OC(C)=O)C(C)(C)[C@@H]5CC[C@]43C)[C@@H]12`, the IC50 in series [1] was above 10 µM; in the series on A2780, above 10 µM; in the series with A549 it was 3.35 µM; in series [2], 4.09 µM; in series [3], 2.77 µM; in series [4] it was 3.21 µM.

As for `CC(=O)C1=C2[C@H]3CC[C@@H]4[C@@]5(C)CC[C@@H](O)C(C)(C)[C@@H]5CC[C@@]4(C)[C@]3(C)CC[C@@]2(C)CC1=O`, the IC50 (in series [1]; in the series on A2780; in the series with A549; in series [2]; in series [3]; in series [4]) was above 10 µM in each case.

Turning to `C=C(C)[C@@H]1CC[C@]2(C)CC[C@]3(C)[C@H](CC[C@@H]4[C@@]5(C)CC[C@@H](O)C(C)(C)[C@@H]5CC[C@]43C)[C@@H]12`, the IC50 (in series [1]; in the series on A2780; in the series on A549; in series [2]; in series [3]; in series [4]) was above 10 µM throughout.

Consider `C=C(CO)[C@@H]1CC[C@]2(C)CC[C@]3(C)[C@H](CC[C@@H]4[C@@]5(C)CCC(=O)C(C)(C)[C@@H]5CC[C@]43C)[C@@H]12`, for which the IC50 (in series [1]; with A2780; with A549; in series [2]; in series [3]; in series [4]) was above 10 µM throughout.

Regarding `C=C(CO)[C@@H]1CC[C@]2(C)CC[C@]3(C)[C@H](CC[C@@H]4[C@@]5(C)CC[C@H](O)C(C)(C)[C@@H]5CC[C@]43C)[C@@H]12`, the IC50 (in series [1]; in the series with A2780; in the series on A549; in series [2]; in series [3]; in series [4]) was above 10 µM each time.

Turning to `CC(=O)O[C@@H]1CC[C@]2(C)[C@H]3CC[C@@H]4[C@H]5[C@H](C(C)=O)CC[C@]5(CO)CC[C@@]4(C)[C@]3(C)CC[C@H]2C1(C)C` (relative stereo), the IC50 (in series [1]; with A2780; in the series on A549; in series [2]; in series [3]; in series [4]) was above 10 µM each time.

Consider `CC(=O)[C@@H]1CC[C@]2(CO)CC[C@]3(C)[C@H](CC[C@@H]4[C@@]5(C)CC[C@@H](O)C(C)(C)[C@@H]5CC[C@]43C)[C@@H]12` (relative stereo), for which the IC50 (in series [1]; with A2780; in the series on A549; in series [2]; in series [3]; in series [4]) was above 10 µM in each case.

Turning to `CC(=O)OC[C@]12CC[C@@H](C(C)=O)[C@@H]1[C@H]1CC[C@@H]3[C@@]4(C)CC[C@@H](O)C(C)(C)[C@@H]4CC[C@@]3(C)[C@]1(C)CC2` (relative stereo), the IC50 (in series [1]; in the series on A2780; in the series with A549; in series [2]; in series [3]; in series [4]) was above 10 µM in each case.

On to `C=C(C)[C@@H]1CC[C@]2(CO)CC[C@]3(C)[C@H](CC[C@@H]4[C@@]5(C)CC[C@H](O)C(C)(C)[C@@H]5CC[C@]43C)[C@@H]12` [BETULIN], for which the concentration for half-maximal inhibition (IC50) (in series [1]; in the series with A2780; in the series with A549; in series [2]; in series [3]; in series [4]) was above 10 µM each time.

In the case of `C=C(C)[C@@H]1CC[C@]2(CO)CC[C@]3(C)[C@H](CC[C@@H]4[C@@]5(C)CCC(=O)C(C)(C)[C@@H]5CC[C@]43C)[C@@H]12` [BETULONE], the IC50 (in series [1]; in the series on A2780; in the series with A549; in series [2]; in series [3]; in series [4]) was above 10 µM throughout.

As for `COc1cc(/C=C/C(=O)CC(=O)/C=C/c2ccc(O)c(OC)c2)ccc1O` [CURCUMIN], the viability in series [5] is 93.3%. Besides, the IC50 in series [1] was determined as 0.53 µM.

Take `C=C(C)[C@@H]1CC[C@]2(C)CC[C@]3(C)[C@H](CC[C@@H]4[C@@]5(C)CC[C@H](O)C(C)(C)[C@@H]5CC[C@]43C)[C@@H]12` [LUPEOL]: the IC50 (in series [1]; in the series with A2780; with A549; in series [2]; in series [3]; in series [4]) was above 10 µM in each case.

`CC(=O)O[C@H]1C(=O)[C@@]2(C)[C@H]([C@H](OC(=O)c3ccccc3)[C@]3(O)C[C@H](OC(=O)[C@H](O)[C@@H](NC(=O)c4ccccc4)c4ccccc4)C(C)=C1C3(C)C)[C@]1(OC(C)=O)CO[C@@H]1C[C@@H]2O` [PACLITAXEL]: the IC50 amounted to 0.59 µM in the series with A2780, 0.032 µM in the series on A549, 0.026 µM in series [2] and 0.011 µM in series [3].
